# Reference: paper PMC12851581, “Allosteric effects of the coupling cation in melibiose transporter MelB” (eLife, 2026)
# Columns and labels:
# [1] = target: T1, melibiose permease MelBSt (WT) (Salmonella enterica, UniProt P30878); assay: ITC, […] NaCl, […] °C; [3H]raffinose transport in cells; format: binding; set-up: gene melB; WT MelBSt/CHis10
# [2] = target: T1, melibiose permease MelBSt (WT); assay: ITC, […] NaCl, […] °C; format: binding; set-up: gene melB; WT MelBSt/CHis10
# [3] = target: T1, melibiose permease MelBSt (WT); assay: α-NPG downhill transport in E. coli DW2 cells (p-nitrophenol release); format: cell-based; set-up: gene melB; WT MelBSt/CHis10 expressed in E. coli DW2 cells
# T1 sequence (P30878 whole entry): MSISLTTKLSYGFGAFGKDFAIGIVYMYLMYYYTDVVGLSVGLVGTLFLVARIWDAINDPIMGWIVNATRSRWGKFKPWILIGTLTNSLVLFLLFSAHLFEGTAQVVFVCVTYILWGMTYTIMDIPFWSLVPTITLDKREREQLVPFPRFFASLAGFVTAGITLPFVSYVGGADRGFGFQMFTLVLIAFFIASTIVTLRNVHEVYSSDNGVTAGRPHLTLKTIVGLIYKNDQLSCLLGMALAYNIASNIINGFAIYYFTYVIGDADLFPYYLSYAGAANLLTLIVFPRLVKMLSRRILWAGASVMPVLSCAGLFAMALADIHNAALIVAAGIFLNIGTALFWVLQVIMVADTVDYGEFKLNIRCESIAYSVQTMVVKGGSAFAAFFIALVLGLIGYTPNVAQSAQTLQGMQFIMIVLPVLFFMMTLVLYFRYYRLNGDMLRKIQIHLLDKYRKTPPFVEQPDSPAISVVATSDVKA
smiles,measurement,setting,value
"OC[C@H]1O[C@H](OC[C@H]2O[C@H](O[C@]3(CO)O[C@H](CO)[C@@H](O)[C@@H]3O)[C@H](O)[C@@H](O)[C@@H]2O)[C@H](O)[C@@H](O)[C@H]1O [raffinose, Raffinose]",Kd,[1],3790 ± 530 µM
"CO[C@H]1O[C@H](CO)[C@H](O)[C@H](O)[C@H]1O [α-MG, methyl α-D-galactoside]",Kd,[2],880 ± 40 µM
"O=[N+]([O-])c1ccc(O[C@H]2O[C@H](CO)[C@H](O)[C@H](O)[C@H]2O)cc1 [α-NPG, p-Nitrophenyl α-D-galactoside]",α-NPG downhill transport in E. coli DW2 cells (p-nitrophenol release),[3],both WT MelBSt and D59C uniport mutant mediated the translocation of α-NPG
